The values below come from publication PMC10343299, “S-Ethyl-Isothiocitrullin-Based Dipeptides and 1,2,4-Oxadiazole Pseudo-Dipeptides: Solid Phase Synthesis and Evaluation as NO Synthase Inhibitors” (Molecules, 2023).

For one experiment, the target named is T1, bovine eNOS (Bos taurus, UniProt P29473).
T1 construct: Full-length recombinant rat nNOS, mouse iNOS, bovine eNOS; made in house; host or cells: Escherichia coli
The experiment is described as follows: NOS inhibition, oxyhemoglobin (hemoglobin capture) test, recombinant eNOS. The class given is biochemical. To be noted: dipeptide-like series; recombinant enzyme, 10 µM arginine, triplicate; NI = <50% inhibition at 100 μM; read-out: IC50 (μM) eNOS (Bovine).

Experiment [1] has as its target T2, oxygenase domain of nNOS (nNOSoxy) (Rattus norvegicus, UniProt P29476).
T2 construct: the oxygenase domain of nNOS (nNOSoxy) and iNOS (iNOSoxy); made in house; host or cells: Escherichia coli
The experiment in a line: UV-visible difference spectroscopy titration of nNOSoxy. To be noted: UV/Vis difference spectroscopy, ± SD, three experiments; read-out: Apparent equilibrium constant Ks nNOSoxy. The experiment is classed as binding. The source says: We performed UV–visible difference spectroscopy to analyze the interaction mode of some inhibitors with the heme-active site of NOS [54]. We have studied the effects of dipeptide-like compounds 7, 17, 19, 23, and 27 and 1,2,4-oxadiazole 35 on the UV–visible spectra of the oxygenase domain of nNOS (nNOSoxy) and iNOS (iNOSoxy). As expected, when added stepwise to n- and iNOSoxy, all selected compounds elicited different spectra with a trough at ~425 nm and a peak at ~395 nm, similar to the substrate L-arginine. This profile is characteristic of type I interactions, meaning that they are bound in close proximity to the heme prosthetic group and shifted the spin state equilibrium to the pentacoordinated heme–Fe^III state. Double reverse plotting of the differences in absorbance between the peak at ~395 nm and valley at ~425 nm (ΔA395–425 nm) as a function of the concentration of the added compounds allowed calculating apparent binding constants (Ks) (Table 3). The reference inhibitor SEITU [55] tightly bound both NOS isoforms with high affinity but no selectivity. With the exception of the dipeptide-like 27 and the heterocyclic analog 35, which similarly interacted with both proteins, other compounds preferentially bound nNOSoxy over iNOSoxy with apparent affinities close to SEITU for this isoform.
Full-length recombinant rat nNOS, mouse iNOS, bovine eNOS, and the heme domains of rat brain nNOS and mouse iNOS were expressed in Escherichia coli and purified as described previously.
This study was performed as previously described.

The target in the next experiment is T3, mouse iNOS (Mus musculus, UniProt P29477).
T3 construct: Full-length recombinant rat nNOS, mouse iNOS, bovine eNOS; made in house; host or cells: Escherichia coli
T3 sequence (P29477 1-1144): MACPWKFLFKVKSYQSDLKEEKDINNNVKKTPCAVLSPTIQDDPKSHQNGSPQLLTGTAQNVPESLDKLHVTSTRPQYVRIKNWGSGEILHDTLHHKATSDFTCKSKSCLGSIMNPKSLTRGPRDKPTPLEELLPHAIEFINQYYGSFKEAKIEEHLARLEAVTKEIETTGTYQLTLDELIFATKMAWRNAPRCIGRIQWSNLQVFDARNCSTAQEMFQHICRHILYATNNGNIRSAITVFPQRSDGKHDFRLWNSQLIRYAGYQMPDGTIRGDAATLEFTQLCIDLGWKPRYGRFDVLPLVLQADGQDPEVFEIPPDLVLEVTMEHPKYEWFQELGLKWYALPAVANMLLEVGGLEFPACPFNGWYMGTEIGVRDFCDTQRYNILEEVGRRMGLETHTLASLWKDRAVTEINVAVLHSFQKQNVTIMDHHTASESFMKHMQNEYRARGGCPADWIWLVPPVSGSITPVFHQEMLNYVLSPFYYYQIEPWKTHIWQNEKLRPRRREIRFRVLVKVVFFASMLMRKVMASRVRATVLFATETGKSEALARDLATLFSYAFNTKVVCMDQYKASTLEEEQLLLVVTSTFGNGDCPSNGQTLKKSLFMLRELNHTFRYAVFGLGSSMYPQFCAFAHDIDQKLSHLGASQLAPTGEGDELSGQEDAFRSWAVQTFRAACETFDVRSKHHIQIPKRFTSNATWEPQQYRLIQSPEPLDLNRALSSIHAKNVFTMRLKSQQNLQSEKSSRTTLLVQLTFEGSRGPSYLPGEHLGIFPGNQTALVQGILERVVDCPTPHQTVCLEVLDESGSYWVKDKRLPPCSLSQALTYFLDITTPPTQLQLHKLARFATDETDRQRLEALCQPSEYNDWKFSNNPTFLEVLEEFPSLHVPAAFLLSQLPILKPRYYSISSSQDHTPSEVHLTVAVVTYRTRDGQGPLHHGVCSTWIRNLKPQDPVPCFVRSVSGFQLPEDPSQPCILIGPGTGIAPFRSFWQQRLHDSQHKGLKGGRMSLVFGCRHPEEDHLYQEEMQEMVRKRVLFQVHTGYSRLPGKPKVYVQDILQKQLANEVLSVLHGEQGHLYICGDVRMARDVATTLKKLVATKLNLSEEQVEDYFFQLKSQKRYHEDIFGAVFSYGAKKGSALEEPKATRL
The experiment is described as follows: NOS inhibition, oxyhemoglobin (hemoglobin capture) test, recombinant iNOS. The class given is biochemical. To be noted: dipeptide-like series, recombinant enzyme, 20 µM arginine, triplicate, NI = <50% inhibition at 100 μM. Put shortly: (§1)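 Full-length E. coli-expressed recombinant enzyme; NO formation followed kinetically at 401 nm via oxyhemoglobin capture at 30 °C in 100 mM Hepes pH 7.5 with NADPH, BH4, FAD, FMN, DTT; arginine 20 µM (iNOS) or 10 µM (nNOS, plus calmodulin and CaCl2). Screened at 100 and 10 μM; IC50 if >50% inhibition at 100 μM.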

The target of another experiment is T4, rat nNOS (Rattus norvegicus, UniProt P29476).
T4 construct: Full-length recombinant rat nNOS, mouse iNOS, bovine eNOS; made in house; host or cells: Escherichia coli
The experiment is described as follows: NOS inhibition, oxyhemoglobin (hemoglobin capture) test, recombinant nNOS. The experiment is classed as biochemical. To be noted: dipeptide-like series; recombinant enzyme, 10 µM arginine, triplicate; NI = <50% inhibition at 100 μM. Put shortly: as §1

T1 sequence (P29473 whole entry): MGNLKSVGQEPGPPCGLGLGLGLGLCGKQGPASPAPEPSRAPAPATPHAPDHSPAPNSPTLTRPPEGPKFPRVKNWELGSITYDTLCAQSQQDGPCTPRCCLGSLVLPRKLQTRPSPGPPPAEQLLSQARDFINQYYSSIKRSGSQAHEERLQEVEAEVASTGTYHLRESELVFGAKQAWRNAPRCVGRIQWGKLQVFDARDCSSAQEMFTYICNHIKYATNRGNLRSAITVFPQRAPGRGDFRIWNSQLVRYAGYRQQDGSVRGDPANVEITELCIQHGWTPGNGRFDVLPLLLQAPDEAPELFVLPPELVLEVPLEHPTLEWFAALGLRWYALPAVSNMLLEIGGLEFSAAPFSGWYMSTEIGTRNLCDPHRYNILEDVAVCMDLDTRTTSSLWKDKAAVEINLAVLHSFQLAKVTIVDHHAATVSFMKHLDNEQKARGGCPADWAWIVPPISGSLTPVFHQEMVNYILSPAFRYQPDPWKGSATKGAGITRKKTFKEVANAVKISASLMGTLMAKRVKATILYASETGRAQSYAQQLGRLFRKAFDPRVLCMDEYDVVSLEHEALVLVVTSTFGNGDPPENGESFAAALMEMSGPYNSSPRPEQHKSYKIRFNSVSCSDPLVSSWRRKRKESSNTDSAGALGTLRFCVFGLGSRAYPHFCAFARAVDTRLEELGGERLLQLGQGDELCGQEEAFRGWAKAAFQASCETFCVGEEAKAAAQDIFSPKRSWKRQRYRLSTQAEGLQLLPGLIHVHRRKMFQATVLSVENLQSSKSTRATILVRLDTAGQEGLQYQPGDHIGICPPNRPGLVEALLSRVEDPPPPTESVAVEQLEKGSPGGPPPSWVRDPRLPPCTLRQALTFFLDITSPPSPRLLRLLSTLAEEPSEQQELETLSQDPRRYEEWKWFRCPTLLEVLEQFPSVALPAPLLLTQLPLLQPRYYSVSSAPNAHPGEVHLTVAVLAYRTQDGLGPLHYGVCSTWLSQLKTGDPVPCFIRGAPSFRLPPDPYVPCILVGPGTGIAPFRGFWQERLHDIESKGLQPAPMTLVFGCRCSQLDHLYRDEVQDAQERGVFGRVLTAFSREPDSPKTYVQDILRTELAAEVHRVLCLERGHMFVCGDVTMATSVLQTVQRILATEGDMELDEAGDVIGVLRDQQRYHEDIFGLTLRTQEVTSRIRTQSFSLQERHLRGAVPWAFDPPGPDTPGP
T2 sequence (P29476 1-720 limits assumed): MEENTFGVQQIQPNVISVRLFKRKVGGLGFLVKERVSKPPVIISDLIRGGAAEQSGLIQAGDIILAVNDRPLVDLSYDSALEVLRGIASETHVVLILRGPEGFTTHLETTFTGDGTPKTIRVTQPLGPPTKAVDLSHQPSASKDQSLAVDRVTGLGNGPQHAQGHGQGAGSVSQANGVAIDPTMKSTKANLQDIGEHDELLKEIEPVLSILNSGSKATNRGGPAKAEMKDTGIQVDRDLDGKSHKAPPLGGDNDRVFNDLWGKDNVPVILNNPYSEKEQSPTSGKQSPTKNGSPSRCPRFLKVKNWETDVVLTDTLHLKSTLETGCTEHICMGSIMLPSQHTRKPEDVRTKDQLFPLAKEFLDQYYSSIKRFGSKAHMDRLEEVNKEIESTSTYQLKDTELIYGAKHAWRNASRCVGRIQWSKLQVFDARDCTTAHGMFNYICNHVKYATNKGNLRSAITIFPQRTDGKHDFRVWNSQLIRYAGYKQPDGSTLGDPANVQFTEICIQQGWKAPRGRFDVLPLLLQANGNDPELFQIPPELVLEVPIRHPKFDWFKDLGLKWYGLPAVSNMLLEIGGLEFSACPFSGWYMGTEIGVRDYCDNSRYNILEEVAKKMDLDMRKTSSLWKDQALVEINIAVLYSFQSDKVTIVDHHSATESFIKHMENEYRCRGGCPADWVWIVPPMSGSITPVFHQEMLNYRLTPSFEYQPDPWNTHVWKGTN
T4 sequence (P29476 whole entry): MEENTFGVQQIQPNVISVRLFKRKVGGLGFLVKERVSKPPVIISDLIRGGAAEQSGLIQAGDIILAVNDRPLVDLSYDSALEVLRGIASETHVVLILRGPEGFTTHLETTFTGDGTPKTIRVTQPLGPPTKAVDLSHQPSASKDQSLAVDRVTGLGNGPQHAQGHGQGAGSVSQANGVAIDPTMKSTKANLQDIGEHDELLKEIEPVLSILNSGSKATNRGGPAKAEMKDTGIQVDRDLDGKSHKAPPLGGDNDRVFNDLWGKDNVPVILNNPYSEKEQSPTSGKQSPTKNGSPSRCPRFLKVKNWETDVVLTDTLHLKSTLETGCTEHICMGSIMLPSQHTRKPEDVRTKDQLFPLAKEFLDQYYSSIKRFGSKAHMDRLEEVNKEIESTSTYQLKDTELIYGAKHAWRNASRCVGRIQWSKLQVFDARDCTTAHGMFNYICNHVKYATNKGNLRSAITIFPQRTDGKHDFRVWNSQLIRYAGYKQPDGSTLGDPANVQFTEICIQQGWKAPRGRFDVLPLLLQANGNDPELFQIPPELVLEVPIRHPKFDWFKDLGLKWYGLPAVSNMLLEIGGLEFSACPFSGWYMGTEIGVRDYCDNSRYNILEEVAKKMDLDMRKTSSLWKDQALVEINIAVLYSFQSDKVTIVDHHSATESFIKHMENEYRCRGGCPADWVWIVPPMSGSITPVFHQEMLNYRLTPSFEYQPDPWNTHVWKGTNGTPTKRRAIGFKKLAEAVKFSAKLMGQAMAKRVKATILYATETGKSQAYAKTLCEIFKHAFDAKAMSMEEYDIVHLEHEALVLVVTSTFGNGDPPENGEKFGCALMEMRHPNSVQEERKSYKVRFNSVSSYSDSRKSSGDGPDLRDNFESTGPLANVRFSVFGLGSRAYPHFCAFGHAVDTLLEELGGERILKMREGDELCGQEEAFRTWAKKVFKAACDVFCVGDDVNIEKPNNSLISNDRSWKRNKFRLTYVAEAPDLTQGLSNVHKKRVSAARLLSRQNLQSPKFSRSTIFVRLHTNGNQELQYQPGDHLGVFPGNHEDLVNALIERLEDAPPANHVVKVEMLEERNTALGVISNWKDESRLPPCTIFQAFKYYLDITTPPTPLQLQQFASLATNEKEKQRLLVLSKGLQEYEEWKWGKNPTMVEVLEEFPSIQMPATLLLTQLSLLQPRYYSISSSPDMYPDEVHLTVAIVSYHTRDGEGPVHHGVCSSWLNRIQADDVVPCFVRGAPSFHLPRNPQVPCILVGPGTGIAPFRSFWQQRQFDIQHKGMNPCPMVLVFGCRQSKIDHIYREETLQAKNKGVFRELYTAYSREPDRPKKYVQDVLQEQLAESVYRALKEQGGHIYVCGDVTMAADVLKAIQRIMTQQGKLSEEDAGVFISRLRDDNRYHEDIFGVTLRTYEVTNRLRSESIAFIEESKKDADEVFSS

For the compound `CCSC(=N)NCCC[C@H](N)C(=O)N[C@H]1CCCN(Cc2ccccc2)C1` [Compound 7], at bovine eNOS, the inhibition at 100 µM is less than 50%. In experiment [1], the Kd turned out to be 7.1 ± 2.6 µM. The results for the IC50 at mouse iNOS and at rat nNOS were 73.4 µM and 17.5 µM, respectively.

On to `CCSC(=N)NCCC[C@H](N)C(=O)N[C@H]1CCCN(Cc2ccc(Cl)c(C(F)(F)F)c2)C1` [Compound 17], for which, on bovine eNOS, the inhibition at 100 µM is less than 50%. Moreover, the Kd in experiment [1] was found to be 3.6 ± 1.5 µM. Moreover, the values for the IC50 on mouse iNOS and on rat nNOS were 12.9 µM and 5 µM, respectively.

For the compound `CCSC(=N)NCCC[C@H](N)C(=O)N[C@H]1CCCN(Cc2cccc(-c3cccc(C(=O)O)c3)c2)C1` [Compound 27], the inhibition at 100 µM on bovine eNOS and on mouse iNOS (read-out: IC50 (μM) iNOS (Mouse)) was less than 50% each time. Also, the Kd in experiment [1] was found to be 70.6 ± 22.8 µM. Also, the IC50 at rat nNOS was found to be 9.5 µM.

By IC50 is commonly meant the midpoint of a concentration-inhibition curve.
